In publication PMC3006207, “Phosphorylation-Dependent Protein Interaction with Trypanosoma brucei 14-3-3 Proteins that Display Atypical Target Recognition” (PLoS ONE, 2010):
Square brackets hold non-standard residues; d marks the D form. Ends that are not written are not given here. Peptide text beside a SMILES is read from it. * marks the point of attachment. Biotin = O=C1N[C@H]2[C@H](CS[C@H]2CCCCC(=O)*)N1; pS = N[C@@H](COP(=O)(O)O)C(=O)O

Key:
[1] = test system: proteins of HeLa and T. brucei PCF cell lysates; experiment: Far-Western blot analysis of HeLa and PCF cell lysates with 14-3-3 probes; format: binding, HeLa (human) and Trypanosoma brucei; details: for effect on interacting proteins, CalA (−) vs (+), with or without calcium: 1 mM CaCl2, T. brucei 14-3-3 probe 2 µg/ml, representative of three independent experiments
Protocol: Far-Western blot analysis of Ser/Thr phosphatase inhibitor Calyculin A (CalA) treated + and/or untreated – of HeLa and/or 29-13 PCF cell lysates was performed. HeLa cells and/or 29-13 PCF cells were lysed with SDS-gel loading buffer supplemented with 2-mercaptoethanol (Bio-Rad, Hercules, CA) and sonicated. The cell lysates equivalent to 5×10^5 HeLa cells and 1×10^7 29-13 PCF cells were applied on 4–20% SDS-PAGE (Daiichi, Japan) and transferred to nitrocellulose filters (Millipore, Bedford, MA). The filters were denatured with denaturation buffer (6M guanidine-HCl, 50 mM Tris-HCl, pH 8.0, and 1 mM dithiothreitol [DTT]). The denaturation buffer was then diluted with an equal volume of 50 mM Tris-HCl, pH 8.0 with 1 mM DTT. After 15 min of denaturation, the filters were then treated with 2x diluted denaturation buffer. The same step was repeatedly carried out eight times and then renatured filters were washed twice with TTBS (50 mM Tris-HCl, pH 7.4, 0.1% Tween 20, and 150 mM NaCl). The resultant filters were blocked with TTBS containing 4% skim milk plus 1 mM DTT. Then the filters were incubated overnight with 1 or 2 µg/ml of GST-14-3-3 probes in 4% skim milk containing the blocking solution at 4°C. The filters were washed three times with TTBS and incubated with anti-GST polyclonal antibodies (Sigma) followed by horseradish peroxidase (HRP)-labeled anti-rabbit goat IgG (Jackson Immunoresearch Laboratories, West Grove, PA).

[2] = molecular target: T1, human 14-3-3τ (Homo sapiens, UniProt P27348); experiment: Surface plasmon resonance (BIAcore), phosphopeptide vs 14-3-3τ; format: binding; details: 14-3-3τ; BIAcore 2000, BIAevaluation 3.0; biotinylated peptide on streptavidin chip (220 RU); HBS-EP buffer, 20 µl/min; read-out: estimated Kd of the mode 1 phosphopeptide
T1 construct: made in house
T1 sequence (P27348 1-245): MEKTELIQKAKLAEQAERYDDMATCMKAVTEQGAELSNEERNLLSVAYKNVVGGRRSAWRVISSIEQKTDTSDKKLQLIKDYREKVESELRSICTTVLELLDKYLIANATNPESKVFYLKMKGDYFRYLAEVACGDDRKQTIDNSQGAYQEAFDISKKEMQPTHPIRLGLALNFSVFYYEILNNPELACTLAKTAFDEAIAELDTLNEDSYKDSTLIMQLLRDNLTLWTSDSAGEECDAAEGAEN
Protocol: The surface plasmon resonance measurement was carried out using BIAcore 2000. A resonance unit value of 220 of biotinylated phosphopeptide pSRaf 259 (biotin-MAGGGRQRSTpSTPN) (mode 1 peptide) was coupled to a streptavidin-coated sensor chip (SA5, BIAcore). In the next step, 200 nM each of purified GST-14-3-3I, GST-14-3-3II, and GST–14-3-3τ, or 500 nM each of MBP-14-3-3I, MBP-14-3-3II, and MBP-14-3-3τ in HBS-EP buffer (BIAcore) was injected at a flow rate of 20 µl/min. A resonance unit value of 296 of biotinylated mode 2 peptide (biotin-MAGGGRLYHpSLP) was also coupled to SA5 and 200 nM each of GST-14-3-3I, GST-14-3-3II and GST-14-3-3τ in HBS-EP buffer, and was injected in the same manner.

[3] = test system: human 14-3-3ζ; experiment: NC-filter binding assay, human 14-3-3ζ; details: biotinylated peptide + streptavidine on nitrocellulose filter; GST-14-3-3ζ detected with α-GST antibodies
Protocol: (§1) Five µl of 1 mM biotinylated peptides, purchased from Scrum (Japan) were mixed with 15 µl of streptavidine (1 mg/ml) in the presence of 0.1% Tween20, spotted on NC-filters and dried. Filters were washed with TTBS, blocked with Protein-Free Blocking Buffer (Pierce), and then incubated with GST-14-3-3 proteins in TTBS containing 20% Protein-Free Blocking Buffer and 1 mM DTT. The filters were extensively washed four times with TTBS, and detected with anti-GST antibodies.

[4] = test system: heterodimeric T. brucei 14-3-3I+II; experiment: NC-filter binding assay, heterodimeric T. brucei 14-3-3; design: species or system Trypanosoma brucei; details: biotinylated peptide + streptavidine on nitrocellulose filter, GST-14-3-3 detected with α-GST antibodies
Protocol: as §1

[5] = test system: endogenous 14-3-3II (T. brucei PCF lysates); experiment: Peptide pull-down assay, endogenous 14-3-3II; format: binding, Trypanosoma brucei
Protocol: (§2) Ten µl of streptavidin agarose beads (Sigma Chemical Co., St. Louis, MO) were incubated with 10 µl of 100 µM of pRaf 259 (biotin- MAGGGRQRSTSTPN) and/or pSRaf 259 at room temperature for 30 min and the beads were washed three times with lysis buffer (150 mM NaCl, 10 mM HEPES, pH 7.5, 0.2% NP-40, 50 mM NaF, 1 mM Na3VO4 and Roche protease inhibitor tablets). Next, 1×10^9 cells of T. brucei PCF were lysed with 2 ml of the lysis buffer on ice. Insoluble proteins were pelleted and 1 ml of the supernatant was used for each peptide pull-down assay. The lysates were incubated with each bead, rotated at 4°C for 2 hrs and washed with the lysis buffer three times. Twenty µl of 2xSDS Gel loading buffer with 2-mercaptoethanol were added to the washed beads, and 5 µl of eluates were run on 10–20% SDS-PAGE. The blots were detected with α-I and/or α–II Abs as described previously.

[6] = test system: endogenous 14-3-3I (T. brucei PCF lysates); experiment: Peptide pull-down assay, endogenous 14-3-3I; format: binding, Trypanosoma brucei
Protocol: as §2

[7] = molecular target: T2, MBP-14-3-3τ (human, UniProt P27348 1-245); experiment: SPR; BIAcore 2000; biotinylated phosphopeptide coupled to a streptavidin-coated chip (220 RU mode 1, 296 RU mode 2); 200 nM GST-14-3-3 or 500 nM MBP-14-3-3 proteins injected in HBS-EP at 20 µl/min; Kd by BIAevaluation 3.0; details: both partners purified
T2 construct: human 14-3-3 tau; source: purified
T2 sequence (looked up): T1 sequence (P27348 1-245)

[8] = molecular target: T3, GST-14-3-3ζ (human 14-3-3ζ) (human, UniProt P63104 1-245); experiment: far-Western, overlay or dot blot; NC-filter binding assay: biotinylated peptides (1 mM) mixed with streptavidin, spotted on nitrocellulose and dried; incubated with GST-14-3-3 proteins in TTBS with 20% Protein-Free Blocking Buffer and 1 mM DTT; anti-GST detection; details: both partners purified
T3 construct: human 14-3-3 zeta
T3 sequence (looked up): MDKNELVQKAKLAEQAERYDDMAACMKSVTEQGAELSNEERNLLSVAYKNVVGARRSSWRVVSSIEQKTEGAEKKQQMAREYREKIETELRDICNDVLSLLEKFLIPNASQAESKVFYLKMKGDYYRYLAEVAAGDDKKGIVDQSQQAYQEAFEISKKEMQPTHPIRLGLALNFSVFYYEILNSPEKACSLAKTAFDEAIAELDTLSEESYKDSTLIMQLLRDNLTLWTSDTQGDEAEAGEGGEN

[9] = molecular target: T4, GST-14-3-3τ (human 14-3-3τ fused to glutathione S-transferase) (human, UniProt P27348 1-245); experiment: SPR; details: both partners purified
T4 construct: human 14-3-3 tau; also called GST-τ; source: purified
T4 sequence (looked up): T1 sequence (P27348 1-245)

[10] = molecular target: T3, GST-14-3-3ζ (human 14-3-3ζ); experiment: far-Western, overlay or dot blot; details: both partners purified

[Ca+2].[Cl-].[Cl-] [CaCl2]
effect on interacting proteins, CalA (−) vs (+), with or without calcium [1]: no major difference

COC[C@@H]([C@H](O)[C@H](O)C(=O)NCC[C@H](C)c1nc(/C=C/C[C@@H]2O[C@]3(C[C@@H](O)[C@@H]2C)O[C@H]([C@H](C[C@H](O)[C@H](C)[C@H](O)[C@H](C)/C=C(C)/C(C)=C/C=C/C(C)=C\C#N)OC)[C@H](OP(=O)(O)O)C3(C)C)co1)N(C)C [calyculin A]
effect on interacting proteins, CalA (−) vs (+), with or without calcium [1]: no major difference | number and amounts of the 14-3-3τ-interacting protein upon treatment ([1]; PCF and HeLa cells, probe GST-τ): increased

CSCC[C@H](NC(=O)CCCC[C@@H]1SC[C@@H]2NC(=O)N[C@@H]21)C(=O)N[C@@H](C)C(=O)NCC(=O)NCC(=O)NCC(=O)N[C@@H](CCCNC(=N)N)C(=O)N[C@@H](CCC(N)=O)C(=O)N[C@@H](CCCNC(=N)N)C(=O)N[C@@H](CO)C(=O)N[C@H](C(=O)N[C@@H](COP(=O)(O)O)C(=O)N[C@H](C(=O)N1CCC[C@H]1C(=O)N[C@@H](CC(N)=O)C(=O)O)[C@@H](C)O)[C@@H](C)O [pSRaf259] (Biotin-MAGGGRQRST[pS]TPN-OH)
Kd [2]: 220 nM

-LIEGRKQTVG [ACS, putative mode 3 synthetic phosphopeptide derived from ACS (acetyl-CoA synthetase, putative)]
interaction with spotted phosphopeptide [3]: would not interact | interaction with spotted phosphopeptide [4]: would not interact

-WLTRSRSLW [PP2c]
interaction with spotted phosphopeptide [4]: failed to show the interactions

Biotin-MAGGGRQRSTSTPN [pRaf259, c-Raf-derived peptide in which 259Ser is unphosphorylated]
peptide pull-down interaction ([5]; T. brucei PCF lysates, 5×10^8 cells/pull-down, Western blot α-II): did not interact | peptide pull-down interaction, longer exposure ([5]; T. brucei PCF lysates, Western blot α-II, longer exposure): weak interaction | amount of captured 14-3-3II, phospho- vs non-phospho-peptide beads ([5]; longer exposure): not different between phospho-(pSRaf259) and non-phospho-(pRaf259) peptide-conjugated beads | peptide pull-down interaction ([6]; T. brucei PCF lysates, 5×10^8 cells/pull-down, Western blot α-I): did not interact | recovery of 14-3-3I by peptide-conjugated beads ([6]; longer exposure): No 14-3-3I was recovered

HVSGLKRRRpSV [p31-SAP part of …pSV]
interaction with spotted phosphopeptide [4]: high-affinity

MGGGLTRSRpSL [PP2c (-W), mode 3 phosphopeptide derived from PP2c-W]
interaction with spotted phosphopeptide [3]: interacts with both phosphopeptides but with the preferential binding to the mode 3 peptide derived from p31-SAP | interaction with spotted phosphopeptide [4]: failed to show the interactions | interaction with spotted phosphopeptide ([4]; listed as MGGGLTRSRpSL): not detected

B1: c-Raf-derived phosphopeptide pSRaf259 (biotin-MAGGGRQRSTpSTPN) (peptide)
peptide: Biotin-MAGGGRQRST[pS]TPN
notes: spacer before the c-Raf stretch; human c-Raf 1 stretch around Ser-259; also called mode 1 peptide; mode 1 phosphopeptide; source: synthetic peptide
binding result [7]: binds | binding result [8]: binds

Biotin-MAGGGRLYH[pS]LP (not fully specified, also called mode 2 peptide) [mode 2 phosphopeptide (biotin-[residues removed]pSLP)]
binding result [9]: binds | binding result [10]: binds
